The source of these data is ChEMBL document CHEMBL1151841, “Dihydrostilbene derivatives from the Mongolian medicinal plant Scorzonera radiata” (J Nat Prod, 2009).

Each structure is given as a SMILES string. Active and inactive are the calls of the source. The calls are words filed in the database; no cut-off is given here.

Test [1] concerns Radical scavenging activity. Kind of test: Antioxidant activity assessed as DPPH radical scavenging activity after 5 mins. The test is classed as functional. In general terms: The DPPH test is a chemical assay of radical scavenging.
In a further test the test system is L5178Y. The test can be described thus: Cytotoxicity against mouse L5178Y cells at 10 ug/mL by MTT assay. Format: functional, cell-based. (In general: Formazan colour is commonly taken as a measure of viable cells.)

Consider `Oc1ccc(/C=C/c2cc(O)cc(O)c2)cc1` [RESVERATROL], for which the IC50 in test [1] is 150 µM.
In the case of `COc1cc(CCc2c(O)ccc(O[C@@H]3O[C@H](CO)[C@@H](O)[C@H](O)[C@H]3O)c2C(C)=O)ccc1O` [SCORZODIHYDROSTILBENE A], in test [1], the IC50 was 106 µM. Moreover, in the test on L5178Y, the outcome was inactive.
For `COc1ccc(CCc2c(O)ccc(O[C@@H]3O[C@H](CO)[C@@H](O)[C@H](O)[C@H]3O)c2C(C)=O)cc1OC` [SCORZODIHYDROSTILBENE B], in test [1], the IC50 worked out at 663 µM. For the same compound, the outcome in the test on L5178Y was inactive.
On to `CC(=O)c1c(O[C@@H]2O[C@H](CO)[C@@H](O)[C@H](O)[C@H]2O)ccc(O)c1CCc1ccc(O)cc1` [SCORZODIHYDROSTILBENE C], for which the IC50 in test [1] stood at 486 µM.
On the same count and under the same terms, as for `COc1ccc(CCc2c(O[C@@H]3O[C@H](CO)[C@@H](O)[C@H](O)[C@H]3O)ccc(O)c2C(C)=O)cc1OC` [SCORZODIHYDROSTILBENE D], the figure is 731 µM; as for `COc1cc(CCc2c(O)ccc(O[C@@H]3O[C@H](CO)[C@@H](O)[C@H](O)[C@H]3O)c2C(C)=O)cc(-c2cc(CCc3c(O)ccc(O[C@@H]4O[C@H](CO)[C@@H](O)[C@H](O)[C@H]4O)c3C(C)=O)cc(OC)c2O)c1O` [SCORZODIHYDROSTILBENE E], 103 µM.

In general, IC50 refers to the concentration at which inhibition is half-maximal.
